# In patent US20110171174A1, “Synergistic Combinations of a Macrocyclic Inhibitor of HCV and a Nucleoside” (ORTHO-MCNEIL-JANSSEN PHARMACEUTICALS, INC., priority 2008, published 2011):
# System: HCV replicon (Huh-7 luc/neo cells, NS3-NS5B regions of HCV type 1b)
# Assay: HCV replicon assay (Huh-Luc cells, luciferase read-out)
# Type: cell-based
# Conditions: Hepatitis C virus, Huh-7, 72 h, three days incubation, luciferase activity, read-out: average EC50 value in the HCV replicon test
# Source text: The in vitro antiviral activity against HCV of the compound of formula I or of formula II can be tested in a cellular HCV replicon system based on Lohmann et al. (1999) Science 285:110-113, with the further modifications described by Krieger et al. (2001) Journal of Virology 75: 4614-4624 (incorporated herein by reference), which is further exemplified in the examples section. This model, while not a complete infection model for HCV, is widely accepted as the most robust and efficient model of autonomous HCV RNA replication currently available. The in vitro antiviral activity against HCV can also be tested by enzymatic tests.
# The compounds of formula I were examined for activity in the inhibition of HCV RNA replication in a cellular assay. […] The cellular assay was based on a bicistronic expression construct, as described by Lohmann et al. (1999) Science vol. […]
# The replicon cells were plated in 384 well plates in the presence of the test and control compounds which were added in various concentrations. Following an incubation of three days, HCV replication was measured by assaying luciferase activity (using standard luciferase assay substrates and reagents, and a Perkin Elmer ViewLux™ ultraHTS microplate imager). […] The inhibitory activity of the compound was monitored on the Huh-Luc cells, enabling a dose-response curve for each test compound. […]
row,SMILES,EC50 [nM]
1,"COc1ccc2c(O[C@@H]3C[C@H]4C(=O)N[C@]5(C(=O)NS(=O)(=O)C6CC6)C[C@H]5C=CCCCCN(C)C(=O)[C@@H]4C3)cc(-c3nc(C(C)C)cs3)nc2c1C (stereo in doubt) [compound I, (1R,4R,6S,15R,17R)-cis-N-[17-[2-(4-isopropylthiazole-2-yl)-7-methoxy-8-methyl-quinolin-4-yloxy]-13-methyl-2,14-dioxo-3,13-diazatricyclo[13.3.0.0^4,6]octadec-7-ene-4-carbonyl](cyclopropyl)sulfonamide]",8
2,"C[C@@H]1[C@H](n2ccc(N)nc2=O)O[C@@](CO)(N=[N+]=[N-])[C@H]1O [compound II, 4-amino-1-((2R,3 S,4S,5R)-5-azido-4-hydroxy-5-hydroxymethyl-3-methyltetrahydro-furan-2-yl)-1H-pyrimidin-2-one]",5000
